Results: PubChem BioAssay AID2252 (Southern Research Specialized Biocontainment Screening …, 2010)

Tested on: THP-1 viability, CellTiter-Glo luminescence, 72 h
Assay: PubChem AID 2252

Structure (SMILES)	EC50 [µM]
Cc1nn(-c2ccccc2)c(C)c1/C=N/n1c(-c2ccc(C(C)(C)C)cc2)n[nH]c1=S	32.1
CCOC(=O)c1c(CSC(=N)N)n(C)c2cc(Br)c(OC(C)=O)cc12	16.9
NC(=O)c1ccsc1NC(=O)c1ccc2c(c1)CCCC2	40.4
c1ccc2c(SCc3cn4ccccc4n3)nncc2c1	< 0.1
NC1=NC[C@H](CC2CCCCC2)N1CCc1cc(C(F)(F)F)cc(C(F)(F)F)c1	6.33
O=C(CSc1ccc(Cl)cc1)c1ccco1	< 0.1
C=CCn1c(NS(=O)(=O)c2ccccc2)c(S(=O)(=O)c2ccc(C)cc2)c2nc3ccccc3nc21	40.9
CSc1ccc2c(c1)C(N1CCN(C)CC1)Cc1ccc(F)cc1S2 (stereo unspecified)	5.63
CCCCCCCCCCOC(=O)Cn1c(COc2ccc(Cl)cc2)[n+](C)c2ccccc21	1.92
S=C(NCc1ccc(Cl)cc1)Nc1ccncc1	40.1
CCCCCCCCCCn1c2c(c(=N)c3c1CCC3)CCC2	0.21
c1ccc(Nc2nc(NCc3ccco3)c3ccccc3n2)cc1	4.95
CC1=NN(c2nc3ccccc3[nH]2)C(=O)C1Cc1ccccc1 (stereo unspecified)	1.85
O=C(Nc1ccncc1)c1cc(-c2ccccn2)nc2ccccc12	23.7
COC(=O)C1=C(C(=O)OC)SC(=C2C(=S)C(C)(C)N(C(=O)C3CC3)c3ccccc32)S1	30.9
COc1ccc(C[C@H]2CN3C(=NC[C@H]3Cc3ccccc3)N2CCNC(=O)c2ccc(C)c(Br)c2)cc1	7.83
CCOC(=O)c1ccccc1-n1c(C)cc(C2N=C(N)Nc3nc4ccccc4n32)c1C (stereo unspecified)	6.21
Oc1cccc2ccc(Nc3ccccn3)nc12	1.75
NC1=NC[C@H](Cc2ccccc2)N1CCCCC1CCCCC1	3.5
CC[n+]1c(/C=C/C=C/c2ccc(N(C)C)cc2)sc2ccccc21	1.43
Cc1cc(N2CCC(C)CC2)nc(NCc2ccccc2)n1	6.23
O=C1C=C(Nc2ccccc2O)c2ccccc2C1=O	10.8
Cc1c(Cl)cccc1Nc1nc(NCCO)c2ccccc2n1	10.1

Structure (SMILES)	EC50 [µM]
O=C(N/N=C/c1cccc(OCc2ccccc2)c1)c1cccs1	40.4
Clc1cc(Br)ccc1OCCCNCc1ccccc1	14.7
CC1CCN(CCOCCOc2ccc(Br)cc2Cl)CC1	32.9
COc1ccc(C(=O)Nc2cc3c(cc2OC)CCCC3)cc1Br	< 0.1
Cc1ccc(O)c(Nc2c3ccccc3nc3ccccc23)c1	14.2
CN1/C(=C\C=C\C2=[N+](C)c3ccc4ccccc4c3C2(C)C)C(C)(C)c2ccccc21	0.2
O=C(CCN1Cc2ccccc2C1)c1ccc2c(c1)OCCO2	19
Cc1ccc2sc(N(CCCN(C)C)C(=O)c3ccc(Br)s3)nc2c1C	21.2
C=C(C)COc1ccc2c(C)c(CCC(=O)NC3CC3)c(=O)oc2c1	< 0.1
CC1(C)N=C(N)N=C(N)N1c1ccc(Oc2ccc(Cl)cc2)c(Cl)c1	2.45
Cc1nc2ccccn2c1C(=O)N/N=C/c1ccc([N+](=O)[O-])o1	13.9
CS(=O)(=O)c1ccc([C@@H](O)[C@@H](CF)NC(=O)C(Cl)Cl)cc1	< 0.1
O=C(C[n+]1cc(Br)cc2ccccc21)c1ccc(F)cc1	< 0.1
CC(C)(c1ccccc1)c1ccc(OCCCN2CCNCC2)cc1	15.3
CC[C@@H](C)[C@H](CN[C@H](CNC)C(C)C)NC[C@@H](C)c1ccc(CC(C)C)cc1	5.96
COc1cc(CNCCc2ccccc2)cc(Cl)c1OCc1ccccc1	16.6
Cc1cc2oc(=O)cc(CN3CCN(C/C=C/c4ccccc4)CC3)c2cc1O	18.6
COc1cc(CNCCO)cc(Cl)c1OCc1ccc(Cl)cc1Cl	10.8
O=C(Nc1ccc([N+](=O)[O-])cc1Cl)c1cc(Cl)ccc1O	1.93
c1ccc(CN2CCC(Nc3nc(-c4cccs4)nc4ccccc34)CC2)cc1	8.03
COC(=O)CC1C(=O)NCCN1C(=O)CSc1nc2ccc([N+](=O)[O-])cc2s1 (stereo unspecified)	< 0.1
COc1ccc(CNCC(O)COc2ccc(C(C)(C)c3ccccc3)cc2)cc1 (stereo unspecified)	14.7
CC(C)(C)Nc1nc(-c2ccccn2)nc2ccccc12	3.45
